Data taken from article PMC3274540 (PLoS ONE, 2012).

Columns and labels:
ERα = target: T1, ERα (Homo sapiens, UniProt P03372); assay: fluorescence polarization competition binding assay
T1 construct: gene ESR1; recombinant
T1 sequence (P03372 1-595): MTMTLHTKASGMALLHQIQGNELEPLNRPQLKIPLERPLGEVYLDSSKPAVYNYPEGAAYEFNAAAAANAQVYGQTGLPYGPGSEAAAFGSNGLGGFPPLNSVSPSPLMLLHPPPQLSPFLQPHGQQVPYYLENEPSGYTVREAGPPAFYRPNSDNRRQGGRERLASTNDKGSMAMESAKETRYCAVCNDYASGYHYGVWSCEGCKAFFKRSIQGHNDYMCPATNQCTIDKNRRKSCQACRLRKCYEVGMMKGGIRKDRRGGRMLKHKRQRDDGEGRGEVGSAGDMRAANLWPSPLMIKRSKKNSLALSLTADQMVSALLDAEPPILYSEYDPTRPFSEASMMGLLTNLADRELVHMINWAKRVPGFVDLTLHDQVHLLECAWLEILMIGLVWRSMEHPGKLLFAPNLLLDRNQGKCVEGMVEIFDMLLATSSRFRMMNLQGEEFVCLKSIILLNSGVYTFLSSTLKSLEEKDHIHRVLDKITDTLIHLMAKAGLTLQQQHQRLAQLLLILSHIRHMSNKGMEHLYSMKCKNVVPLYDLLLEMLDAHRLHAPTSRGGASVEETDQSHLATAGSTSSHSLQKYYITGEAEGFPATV

ERβ = target: T2, ERβ (Homo sapiens, UniProt Q92731); assay: as above
T2 construct: gene ESR2; recombinant
T2 sequence (Q92731 whole entry): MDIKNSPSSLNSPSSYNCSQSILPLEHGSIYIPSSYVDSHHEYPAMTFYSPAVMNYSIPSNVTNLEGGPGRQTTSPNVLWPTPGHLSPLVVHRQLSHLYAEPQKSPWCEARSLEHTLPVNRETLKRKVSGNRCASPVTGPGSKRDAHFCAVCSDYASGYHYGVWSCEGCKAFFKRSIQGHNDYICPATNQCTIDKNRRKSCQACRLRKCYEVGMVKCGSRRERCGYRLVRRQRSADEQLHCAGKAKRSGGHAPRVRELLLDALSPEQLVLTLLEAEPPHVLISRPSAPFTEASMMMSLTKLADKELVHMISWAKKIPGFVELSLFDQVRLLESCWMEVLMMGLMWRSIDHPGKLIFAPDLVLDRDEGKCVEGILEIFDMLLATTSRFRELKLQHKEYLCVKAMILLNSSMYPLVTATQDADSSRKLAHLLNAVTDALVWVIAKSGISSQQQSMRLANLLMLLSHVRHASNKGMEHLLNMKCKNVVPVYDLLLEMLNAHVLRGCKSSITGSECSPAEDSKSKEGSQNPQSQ

| SMILES | IC50 (ERα) | IC50 (ERβ) |
| --- | --- | --- |
| COc1ccc([C@@H](C)C(=O)c2ccc(O)cc2O)cc1 [angolensin, 1-(2,4-dihydroxyphenyl)-2-(4-methoxyphenyl)propan-1-one] | 2.2 µM | 4.7 µM |
| O=c1cc(-c2ccc(O)cc2)oc2cc(O[C@@H]3O[C@H](CO)[C@@H](O)[C@H](O)[C@H]3O)cc(O)c12 [cosmosiin, 5-hydroxy-2-(4-hydroxyphenyl)-7-[(2S,3R,4S,5S,6R)-3,4,5-trihydroxy-6-(hydroxymethyl)oxan-2-yl]oxychromen-4-one] | 15.9 µM | 3.3 µM |
